In publication doi:10.1101/692707v2 (biorxiv, 2020):
Each block holds one molecule with its values, some of them ahead of it.

Legend:
Assay type in all cases: binding
YdiU^475 [1] = target: T1, YdiU^475 (Escherichia coli, UniProt P77649); assay: SPR
T1 sequence (P77649 1-475): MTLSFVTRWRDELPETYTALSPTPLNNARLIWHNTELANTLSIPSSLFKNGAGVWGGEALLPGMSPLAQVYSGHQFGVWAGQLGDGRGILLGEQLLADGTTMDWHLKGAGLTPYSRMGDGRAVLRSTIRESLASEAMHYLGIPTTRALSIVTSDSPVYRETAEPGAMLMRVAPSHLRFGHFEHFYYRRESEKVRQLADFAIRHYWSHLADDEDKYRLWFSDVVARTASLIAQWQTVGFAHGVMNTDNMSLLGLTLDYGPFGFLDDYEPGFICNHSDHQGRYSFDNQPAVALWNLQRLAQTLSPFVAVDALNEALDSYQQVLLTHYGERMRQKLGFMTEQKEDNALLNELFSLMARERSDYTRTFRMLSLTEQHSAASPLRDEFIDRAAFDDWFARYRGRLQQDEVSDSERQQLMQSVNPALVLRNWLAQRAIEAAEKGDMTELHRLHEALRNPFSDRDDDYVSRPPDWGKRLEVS

YdiU^475 [2] = target: T1, YdiU^475; assay: X-ray crystal structure; conditions: Mg2+, active site
YdiU^475 [3] = target: T1, YdiU^475; assay: DSF on Uncle platform; conditions: 2 mM Mn2+, Tm of complex, not a shift, apo 38.3 °C (with 5 mM EDTA)

- Kd (YdiU^475 [1]): ~0.14 µM
Structure (SMILES): O=c1ccn([C@@H]2O[C@H](COP(=O)(O)NP(=O)(O)OP(=O)(O)O)[C@@H](O)[C@H]2O)c(=O)[nH]1 [UMPNPP]

- Tm1 (YdiU^475 [3]; 1 mM UTP): 40.6 °C
Structure (SMILES): O=c1ccn([C@@H]2O[C@H](COP(=O)(O)OP(=O)(O)OP(=O)(O)O)[C@@H](O)[C@H]2O)c(=O)[nH]1 [UTP]

More lines, now with the values behind:

Structure (SMILES): Nc1ncnc2c1ncn2[C@@H]1O[C@H](COP(=O)(O)OP(=O)(O)NP(=O)(O)O)[C@@H](O)[C@H]1O [AMPNPP]
- Kd (YdiU^475 [1]): ~18 µM

Structure (SMILES): Nc1ncnc2c1ncn2[C@@H]1O[C@H](COP(=O)(O)O)[C@@H](O)[C@H]1O [AMP]
- X-ray crystal structure (YdiU^475 [2]; together with imidodiphosphate): 6III (YdiU-AMP-imidodiphosphonic acid)

Structure (SMILES): Nc1ncnc2c1ncn2[C@@H]1O[C@H](COP(=O)(O)OP(=O)(O)OP(=O)(O)O)[C@@H](O)[C@H]1O [ATP]
- Tm1 (YdiU^475 [3]; 1 mM ATP): 50.3 °C

Structure (SMILES): O=P(O)(O)NP(=O)(O)O [imidodiphosphonic acid]
- X-ray crystal structure (YdiU^475 [2]; together with AMP): 6III (YdiU-AMP-imidodiphosphonic acid)
